Values belong to the compound of their own block, whether it stands above or below them.
Legend:
[1] = target: Beta-1 adrenergic receptor (Homo sapiens, UniProt P08588); format: functional, cell-based
[2] = target: T1, Peroxisome proliferator-activated receptor alpha (Homo sapiens, UniProt Q07869); format: functional
T1 sequence (Q07869 whole entry): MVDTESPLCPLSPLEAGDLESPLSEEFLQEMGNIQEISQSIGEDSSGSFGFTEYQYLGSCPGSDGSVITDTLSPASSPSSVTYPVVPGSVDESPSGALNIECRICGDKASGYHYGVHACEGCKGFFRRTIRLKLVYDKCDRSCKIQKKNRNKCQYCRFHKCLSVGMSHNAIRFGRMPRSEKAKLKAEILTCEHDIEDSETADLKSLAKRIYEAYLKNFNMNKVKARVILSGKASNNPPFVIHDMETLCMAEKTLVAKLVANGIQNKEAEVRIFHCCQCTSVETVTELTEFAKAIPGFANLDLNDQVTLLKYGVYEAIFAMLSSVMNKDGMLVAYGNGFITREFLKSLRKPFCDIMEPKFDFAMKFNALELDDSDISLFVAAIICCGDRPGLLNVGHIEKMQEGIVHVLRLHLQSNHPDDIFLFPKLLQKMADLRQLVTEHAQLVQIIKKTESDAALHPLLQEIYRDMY

[3] = target: T1, Peroxisome proliferator-activated receptor alpha; format: functional; remark: listed apart in the source
[4] = target: T2, Substance-K receptor (Homo sapiens, UniProt P21452)
T2 sequence (P21452 whole entry): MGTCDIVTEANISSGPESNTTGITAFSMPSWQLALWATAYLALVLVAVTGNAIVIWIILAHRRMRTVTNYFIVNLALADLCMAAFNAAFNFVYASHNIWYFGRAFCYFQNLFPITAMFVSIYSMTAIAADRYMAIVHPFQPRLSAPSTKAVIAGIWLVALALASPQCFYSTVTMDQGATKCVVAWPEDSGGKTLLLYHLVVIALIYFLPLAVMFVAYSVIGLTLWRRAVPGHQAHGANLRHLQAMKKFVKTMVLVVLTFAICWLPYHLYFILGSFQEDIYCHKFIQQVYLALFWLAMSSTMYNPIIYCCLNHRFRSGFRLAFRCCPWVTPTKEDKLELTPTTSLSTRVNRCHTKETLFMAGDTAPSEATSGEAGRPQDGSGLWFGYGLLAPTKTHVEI

[5] = target: T3, Estrogen receptor (Homo sapiens, UniProt P03372); format: functional
T3 sequence (P03372 whole entry): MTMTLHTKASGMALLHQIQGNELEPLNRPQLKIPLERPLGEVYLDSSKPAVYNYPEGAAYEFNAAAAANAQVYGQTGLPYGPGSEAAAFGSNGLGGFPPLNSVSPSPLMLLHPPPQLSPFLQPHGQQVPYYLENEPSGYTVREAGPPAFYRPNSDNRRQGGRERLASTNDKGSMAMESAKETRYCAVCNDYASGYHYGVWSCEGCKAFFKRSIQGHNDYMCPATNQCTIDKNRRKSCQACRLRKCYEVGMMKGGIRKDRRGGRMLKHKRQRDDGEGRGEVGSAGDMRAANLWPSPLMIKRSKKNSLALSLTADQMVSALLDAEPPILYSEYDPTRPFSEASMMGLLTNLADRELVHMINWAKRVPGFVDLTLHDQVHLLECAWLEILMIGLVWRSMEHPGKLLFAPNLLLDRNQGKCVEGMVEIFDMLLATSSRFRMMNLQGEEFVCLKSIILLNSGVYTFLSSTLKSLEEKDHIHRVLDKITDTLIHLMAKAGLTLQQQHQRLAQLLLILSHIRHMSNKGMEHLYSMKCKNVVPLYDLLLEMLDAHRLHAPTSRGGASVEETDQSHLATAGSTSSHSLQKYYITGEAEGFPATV

[6] = target: T3, Estrogen receptor; format: functional; remark: listed apart in the source
[7] = target: T4, Glucocorticoid receptor (Homo sapiens, UniProt P04150); format: functional
T4 sequence (P04150 whole entry): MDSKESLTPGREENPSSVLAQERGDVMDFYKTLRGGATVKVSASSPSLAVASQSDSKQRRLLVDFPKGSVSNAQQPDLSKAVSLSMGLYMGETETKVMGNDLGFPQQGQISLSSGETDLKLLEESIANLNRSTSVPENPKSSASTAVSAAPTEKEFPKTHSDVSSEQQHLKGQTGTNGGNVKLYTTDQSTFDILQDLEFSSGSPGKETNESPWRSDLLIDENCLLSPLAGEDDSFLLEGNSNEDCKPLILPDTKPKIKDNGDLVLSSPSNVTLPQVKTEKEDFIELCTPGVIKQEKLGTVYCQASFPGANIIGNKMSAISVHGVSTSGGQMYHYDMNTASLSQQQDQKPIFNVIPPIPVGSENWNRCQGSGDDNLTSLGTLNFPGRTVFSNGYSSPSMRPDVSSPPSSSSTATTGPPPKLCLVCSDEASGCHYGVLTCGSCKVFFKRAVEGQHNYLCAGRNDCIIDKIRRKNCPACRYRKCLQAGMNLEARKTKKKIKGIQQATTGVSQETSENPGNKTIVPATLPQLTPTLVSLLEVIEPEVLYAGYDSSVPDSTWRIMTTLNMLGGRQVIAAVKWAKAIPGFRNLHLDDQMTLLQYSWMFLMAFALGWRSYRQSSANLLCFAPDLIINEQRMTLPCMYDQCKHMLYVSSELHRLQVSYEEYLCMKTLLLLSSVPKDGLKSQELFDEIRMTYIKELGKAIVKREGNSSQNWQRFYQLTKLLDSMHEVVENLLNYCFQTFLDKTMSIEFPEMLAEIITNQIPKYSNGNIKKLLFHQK

[8] = target: T5, Muscarinic acetylcholine receptor M2 (Homo sapiens, UniProt P08172)
T5 sequence (P08172 whole entry): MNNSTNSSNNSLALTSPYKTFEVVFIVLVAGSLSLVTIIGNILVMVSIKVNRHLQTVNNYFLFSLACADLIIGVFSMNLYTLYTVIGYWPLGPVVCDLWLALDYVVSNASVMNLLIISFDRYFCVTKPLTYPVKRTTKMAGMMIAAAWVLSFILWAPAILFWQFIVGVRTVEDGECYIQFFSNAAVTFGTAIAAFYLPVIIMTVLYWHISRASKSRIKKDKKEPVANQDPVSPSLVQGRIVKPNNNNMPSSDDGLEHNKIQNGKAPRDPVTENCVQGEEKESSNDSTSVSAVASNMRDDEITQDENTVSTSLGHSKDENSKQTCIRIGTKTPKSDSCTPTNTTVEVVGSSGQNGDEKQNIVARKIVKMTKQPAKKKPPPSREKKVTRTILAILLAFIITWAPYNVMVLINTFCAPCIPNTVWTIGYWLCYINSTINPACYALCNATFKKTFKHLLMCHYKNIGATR
Also: assay procedure not described here.

Chain of Beta-1 adrenergic receptor (P08588 whole entry): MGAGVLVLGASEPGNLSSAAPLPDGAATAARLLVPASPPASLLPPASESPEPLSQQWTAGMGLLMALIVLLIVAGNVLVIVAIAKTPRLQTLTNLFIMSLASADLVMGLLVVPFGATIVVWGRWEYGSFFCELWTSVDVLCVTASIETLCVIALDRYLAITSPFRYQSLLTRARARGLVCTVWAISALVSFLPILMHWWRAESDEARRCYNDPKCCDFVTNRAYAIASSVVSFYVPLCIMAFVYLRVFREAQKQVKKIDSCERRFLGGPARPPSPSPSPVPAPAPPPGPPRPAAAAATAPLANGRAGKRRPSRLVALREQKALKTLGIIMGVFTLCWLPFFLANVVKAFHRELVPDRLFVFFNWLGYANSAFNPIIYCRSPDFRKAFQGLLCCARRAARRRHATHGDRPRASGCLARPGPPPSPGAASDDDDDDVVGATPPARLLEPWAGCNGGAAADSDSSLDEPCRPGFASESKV

- AC50 [1]: > 30 µM
- AC50 [2]: > 30 µM
- AC50 [3]: > 30 µM
Compound: CC(C)(Oc1ccc(Cl)cc1)C(=O)OCCOC(=O)c1cccnc1 [ETOFIBRATE]

Compound: N=C(N)NC(=O)c1nc(Cl)c(N)nc1N [AMILORIDE]
- AC50 [4]: > 10 µM

- AC50 [1]: > 30 µM
Compound: C[C@]12CCC(=O)C=C1C=C[C@@H]1[C@@H]2CC[C@@]2(C)[C@H]1CC[C@@]21CCC(=O)O1 [CANRENONE]

Compound: COc1cccc2c1C(=O)c1c(O)c3c(c(O)c1C2=O)C[C@@](O)(C(=O)CO)C[C@@H]3O[C@H]1C[C@H](N)[C@H](O)[C@H](C)O1 [DOXORUBICIN]
- AC50 [5]: > 10 µM
- AC50 [6]: > 3 µM
- AC50 [7]: > 10 µM

Compound: CN1CCCC(CC2c3ccccc3Sc3ccccc32)C1 (centres undefined) [METHIXENE]
- AC50 [8]: 0.0053 µM

— ChEMBL document CHEMBL5291721, “A preclinical secondary pharmacology resource illuminates target-adverse drug reaction associations of marketed drugs” (Nat Commun, 2023)
